Data set [1] relates to Brain. In words: Drug uptake in Harlan Sprague-Dawley rat brain at 3 ug/kg, iv after 10 mins by LC-MS/MS analysis. The format is ADME, organism-based. The following applies: in vivo, 0.003 mg/kg.
Data set [2] can be described thus: Lipophilicity, log D of the compound at pH 7.4 by potentiometric method. The format is physicochemical. The following applies: buffer.
Data set [3] relates to Brain. In words: Drug uptake in Harlan Sprague-Dawley rat brain at 3 ug/kg, iv up to 60 mins by LC-MS/MS analysis. The following applies: in vivo, 1 h.
Another data set has as its target Mu-type opioid receptor (Homo sapiens, UniProt P35372). In words: Displacement of [3H]diprenorphine from human cloned mu type opioid receptor expressed in CHO cell membranes by scintillation counter.
The target in data set [4] is Kappa-type opioid receptor (Homo sapiens, UniProt P41145). The data set can be described thus: biochemical.
Kappa-type opioid receptor, sequence (P41145 whole entry): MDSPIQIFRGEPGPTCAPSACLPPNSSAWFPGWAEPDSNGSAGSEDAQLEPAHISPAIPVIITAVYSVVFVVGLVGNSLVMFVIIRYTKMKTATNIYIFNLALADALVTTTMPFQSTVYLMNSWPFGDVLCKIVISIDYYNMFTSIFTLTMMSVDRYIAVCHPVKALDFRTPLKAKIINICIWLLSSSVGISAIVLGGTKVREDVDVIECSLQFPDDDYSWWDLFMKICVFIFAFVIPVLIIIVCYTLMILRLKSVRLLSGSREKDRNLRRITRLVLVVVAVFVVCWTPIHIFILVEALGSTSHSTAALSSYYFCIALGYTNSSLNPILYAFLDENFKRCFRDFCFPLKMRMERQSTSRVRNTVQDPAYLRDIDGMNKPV
Description: Displacement of [3H]diprenorphine from human cloned kappa type opioid receptor expressed in CHO cell membranes by scintillation counter
For data set [5], the target named is Delta-type opioid receptor (Homo sapiens, UniProt P41143). The data set can be described thus: biochemical.
Delta-type opioid receptor, sequence (P41143 whole entry): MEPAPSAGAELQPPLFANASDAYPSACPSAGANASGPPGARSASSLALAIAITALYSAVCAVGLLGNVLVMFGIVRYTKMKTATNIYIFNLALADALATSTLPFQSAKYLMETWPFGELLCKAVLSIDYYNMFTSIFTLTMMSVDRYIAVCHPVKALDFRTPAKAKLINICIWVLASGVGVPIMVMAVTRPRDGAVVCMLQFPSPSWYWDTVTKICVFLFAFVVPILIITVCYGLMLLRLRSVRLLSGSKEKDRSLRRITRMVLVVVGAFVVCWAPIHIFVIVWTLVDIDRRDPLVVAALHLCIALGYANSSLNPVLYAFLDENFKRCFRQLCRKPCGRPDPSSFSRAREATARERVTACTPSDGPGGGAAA
Description: Displacement of [3H]diprenorphine from human cloned delta type opioid receptor expressed in CHO cell membranes by scintillation counter
A further data set concerns Rattus norvegicus. The data set can be described thus: In vivo receptor occupancy of NOP receptor in po dosed Harlan Sprague-Dawley rat hypothalamus co-administered with unlabeled tracer compound at 3 ug/kg, iv. Format: functional.

Here are results for 23 compounds from ChEMBL document CHEMBL2086370 (J Med Chem, 2012).

Molecules are shown by their SMILES.

Mu-type opioid receptor, sequence (P35372 whole entry): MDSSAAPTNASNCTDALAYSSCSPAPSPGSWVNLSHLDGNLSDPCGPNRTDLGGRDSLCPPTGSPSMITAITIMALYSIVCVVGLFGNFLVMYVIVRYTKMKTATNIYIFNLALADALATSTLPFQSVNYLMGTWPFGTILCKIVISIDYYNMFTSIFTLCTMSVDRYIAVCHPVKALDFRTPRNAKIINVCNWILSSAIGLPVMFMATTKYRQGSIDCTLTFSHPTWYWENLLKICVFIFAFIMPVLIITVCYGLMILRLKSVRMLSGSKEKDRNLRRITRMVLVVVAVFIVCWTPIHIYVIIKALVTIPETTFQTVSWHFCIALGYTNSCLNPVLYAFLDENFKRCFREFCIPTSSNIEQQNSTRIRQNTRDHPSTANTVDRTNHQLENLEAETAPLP

As to `CC(C)N(C)C(=O)[C@@H](Cc1ccccc1F)CN1CCC2(CC1)OCCc1cc(F)sc12`, the SUV with Brain [1] amounted to 143%. Besides, the logD in data set [2] (read-out: logD) was found to be 4.47.
Consider `O=C1NCN(c2ccccc2)C12CCN([C@H]1CC[C@@H]3CCCc4cccc1c43)CC2`, for which the logD in data set [2] (read-out: logD) was determined as 3.46.
`CNC(=O)Cn1c(=O)n(C2CCN([C@@H]3Cc4cccc5cccc3c45)CC2)c2ccccc21` gave an SUV with Brain [3] of 0%.
Turning to `COC(=O)CN1CN(c2ccccc2)C2(CCN(Cc3cccc4ccccc34)CC2)C1=O`, the logD in data set [2] (read-out: logD) came to 3.85. Also, the SUV in the data set on Brain [3] came to 6%.
Turning to `CN(C)C(=O)C(Cc1cscn1)CN1CCC2(CC1)OCc1ccc(F)cc12` (configuration not stated), the Ki (at Mu-type opioid receptor; in data set [4]; in data set [5]) was more than 400 nM in each case. Moreover, the logD in data set [2] (read-out: logD) came to 2.02. In the data set on Brain [3], this compound had an SUV of 25%.
For the compound `CNC(=O)C(Cc1ccccc1Cl)CN1CCC2(CC1)OCCc1cc(Cl)sc12` (configuration not stated), in data set [2] (read-out: logD), the logD is 3.77. In the data set on Brain [3], this compound displayed an SUV of 87%.
The corresponding values for `NC(=O)C(Cc1ccccc1Cl)CN1CCC2(CC1)OCCc1cc(Cl)sc12` (configuration not stated) are 4.58 and 145%.
Turning to `CN(C)C(=O)[C@@H](Cc1ccccc1F)CN1CCC2(CC1)OCCc1cc(F)sc12.O=C(O)C(O)C(O)C(=O)O`, the Ki (at Mu-type opioid receptor; in data set [4]; in data set [5]) was more than 400 nM each time. The compound also came in with an SUV in the data set on Brain [1] of 154%. Further, the logD in data set [2] (read-out: logD) is 3.89.
On to `Cc1cccc2c1CC[C@H](CN1CCC(c3c(Cl)cccc3Cl)CC1)C[C@@H]2O`, for which the Ki (on Mu-type opioid receptor; in data set [4]; in data set [5]) was more than 400 nM each time. For the same compound, the logD in data set [2] (read-out: logD) is 3.56. The SUV in the data set with Brain [3] worked out at 130%. Further, in the data set on Rattus norvegicus, the ED50 stood at 6.9 mg/kg.
Turning to `CN(C)C(=O)C(CN1CCC2(CC1)OCCc1ccsc12)Cn1cccn1` (racemic), the Ki (at Mu-type opioid receptor; in data set [4]; in data set [5]) was more than 400 nM each time.
Take `CN(C)C(=O)C(Cc1ccccc1Cl)CN1CCC2(CC1)OCCc1ccsc12` (racemic): the Ki (at Mu-type opioid receptor; in data set [4]; in data set [5]) was more than 400 nM throughout.
With `CN(C)C(=O)C(Cc1ccccc1F)CN1CCC2(CC1)OCCc1ccsc12` (racemic), the Ki (on Mu-type opioid receptor; in data set [4]; in data set [5]) was more than 400 nM in each case.
As for `CN(C)C(=O)C(Cc1c(F)cccc1F)CN1CCC2(CC1)OCCc1ccsc12` (racemic), the inhibition constant (Ki) (on Mu-type opioid receptor; in data set [4]; in data set [5]) was more than 400 nM each time.
Turning to `CN(C)C(=O)C(CN1CCC2(CC1)OCCc1cc(F)sc12)Cn1cccn1.O=C(O)C(O)C(O)C(=O)O` (single isomer, unassigned; (+)), in data set [2] (read-out: logD), the logD was found to be 2.84. Also, the SUV in the data set on Brain [3] was determined as 65%.
With `CN(C)C(=O)C(Cc1ccccc1F)CN1CCC2(CC1)OCCc1cc(Cl)sc12.O=C(O)C(O)C(O)C(=O)O` (single isomer, unassigned; (+)), the inhibitory constant (Ki) (on Mu-type opioid receptor; in data set [4]; in data set [5]) was more than 400 nM in each case. In addition, the logD in data set [2] (read-out: logD) came out at 4.27. For the same compound, in the data set on Brain [3], the SUV was 88%.
With `CN(C)C(=O)C(Cc1ccccc1Cl)CN1CCC2(CC1)OCCc1cc(F)sc12` (single isomer, unassigned; (+)), the Ki (on Mu-type opioid receptor; in data set [4]; in data set [5]) was more than 400 nM throughout. This compound also yielded an SUV with Brain [1] of 208%. Moreover, in data set [2] (read-out: logD), the logD is 4.38.
For `CN(C)C(=O)C(CN1CCC2(CC1)OCCc1ccsc12)Cn1cccn1.O=C(O)C(O)C(O)C(=O)O` (single isomer, unassigned; (-)), in data set [2] (read-out: logD), the logD stood at 2.03. Moreover, the SUV in the data set on Brain [3] is recorded as 15%.
Take `CN(C)C(=O)C(Cc1ccccc1Cl)CN1CCC2(CC1)OCCc1cc(Cl)sc12.O=C(O)C(O)C(O)C(=O)O` (single isomer, unassigned; (-)): the Ki (on Mu-type opioid receptor; in data set [4]; in data set [5]) was more than 400 nM throughout. Moreover, the logD in data set [2] (read-out: logD) is 4.61. In addition, in the data set with Brain [3], the SUV is listed as 75%.
Consider `CNC(=O)C(Cc1ccccc1F)CN1CCC2(CC1)OCCc1cc(Cl)sc12` (single isomer, unassigned; (-)), for which the logD in data set [2] (read-out: logD) turned out to be 4.19. The SUV with Brain [3] came to 46%.
As to `CNC(=O)C(Cc1ccccc1Cl)CN1CCC2(CC1)OCCc1cc(F)sc12` (single isomer, unassigned; (-)), the SUV with Brain [1] amounted to 154%. Besides, the logD in data set [2] (read-out: logD) turned out to be 3.9.
`CN(C(=O)C(Cc1ccccc1F)CN1CCC2(CC1)OCCc1cc(F)sc12)C1CC1` (single isomer, unassigned; (-)): the logD in data set [2] (read-out: logD) was 4.77. In the data set with Brain [3], this compound had an SUV of 82%.
For `CN(C(=O)C(Cc1ccccc1Cl)CN1CCC2(CC1)OCCc1cc(F)sc12)C1CC1` (single isomer, unassigned; (-)), the logD in data set [2] (read-out: logD) worked out at 5.52. Besides, the SUV in the data set on Brain [3] is recorded as 72%.
In turn, `CNC(=O)[C@@H](Cc1ccccc1F)CN1CCC2(CC1)OCCc1cc(F)sc12` [NOP-1A] yielded an SUV in the data set with Brain [1] of 124%. Besides, in data set [2], the logD amounted to 3.5.
